Laboratory results taken from patent US11690845B2, “Methods of administering elagolix” (priority 2020, dated 2023).
Read-outs that look alike come from different tables or passages of the source.

Experiments:
CYP2B6 = test: In vitro studies: CYP2B6 induction; format: in vitro ADME
CYP3A4 = test: In vitro studies: CYP3A4 (CYP3A) induction; format: in vitro ADME; conditions: in vitro studies (CYP3A4; b159: CYP3A)
CYP2C19 = CYP2C19 (Homo sapiens, UniProt P33261); test: In vitro studies: CYP2C19 inhibition; format: in vitro ADME
Sequence of CYP2C19 (P33261 whole entry): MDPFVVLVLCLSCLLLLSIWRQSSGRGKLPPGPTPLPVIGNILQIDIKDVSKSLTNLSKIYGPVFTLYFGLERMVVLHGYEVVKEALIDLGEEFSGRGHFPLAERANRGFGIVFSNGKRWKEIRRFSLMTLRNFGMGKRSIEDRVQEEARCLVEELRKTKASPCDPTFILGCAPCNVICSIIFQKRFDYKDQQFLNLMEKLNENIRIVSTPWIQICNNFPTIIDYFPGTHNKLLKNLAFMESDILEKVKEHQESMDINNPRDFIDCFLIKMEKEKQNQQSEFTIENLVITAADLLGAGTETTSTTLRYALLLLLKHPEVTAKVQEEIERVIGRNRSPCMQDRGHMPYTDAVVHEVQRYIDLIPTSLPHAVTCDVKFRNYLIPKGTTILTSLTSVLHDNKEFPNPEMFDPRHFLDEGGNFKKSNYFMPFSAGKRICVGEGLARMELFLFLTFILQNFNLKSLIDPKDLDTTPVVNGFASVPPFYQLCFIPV

P-glycoprotein (P-gp) = P-glycoprotein (P-gp) (Homo sapiens, UniProt P08183); test: Inhibition of efflux transporter P-gp; format: in vitro ADME
Sequence of P-glycoprotein (P-gp) (P08183 whole entry): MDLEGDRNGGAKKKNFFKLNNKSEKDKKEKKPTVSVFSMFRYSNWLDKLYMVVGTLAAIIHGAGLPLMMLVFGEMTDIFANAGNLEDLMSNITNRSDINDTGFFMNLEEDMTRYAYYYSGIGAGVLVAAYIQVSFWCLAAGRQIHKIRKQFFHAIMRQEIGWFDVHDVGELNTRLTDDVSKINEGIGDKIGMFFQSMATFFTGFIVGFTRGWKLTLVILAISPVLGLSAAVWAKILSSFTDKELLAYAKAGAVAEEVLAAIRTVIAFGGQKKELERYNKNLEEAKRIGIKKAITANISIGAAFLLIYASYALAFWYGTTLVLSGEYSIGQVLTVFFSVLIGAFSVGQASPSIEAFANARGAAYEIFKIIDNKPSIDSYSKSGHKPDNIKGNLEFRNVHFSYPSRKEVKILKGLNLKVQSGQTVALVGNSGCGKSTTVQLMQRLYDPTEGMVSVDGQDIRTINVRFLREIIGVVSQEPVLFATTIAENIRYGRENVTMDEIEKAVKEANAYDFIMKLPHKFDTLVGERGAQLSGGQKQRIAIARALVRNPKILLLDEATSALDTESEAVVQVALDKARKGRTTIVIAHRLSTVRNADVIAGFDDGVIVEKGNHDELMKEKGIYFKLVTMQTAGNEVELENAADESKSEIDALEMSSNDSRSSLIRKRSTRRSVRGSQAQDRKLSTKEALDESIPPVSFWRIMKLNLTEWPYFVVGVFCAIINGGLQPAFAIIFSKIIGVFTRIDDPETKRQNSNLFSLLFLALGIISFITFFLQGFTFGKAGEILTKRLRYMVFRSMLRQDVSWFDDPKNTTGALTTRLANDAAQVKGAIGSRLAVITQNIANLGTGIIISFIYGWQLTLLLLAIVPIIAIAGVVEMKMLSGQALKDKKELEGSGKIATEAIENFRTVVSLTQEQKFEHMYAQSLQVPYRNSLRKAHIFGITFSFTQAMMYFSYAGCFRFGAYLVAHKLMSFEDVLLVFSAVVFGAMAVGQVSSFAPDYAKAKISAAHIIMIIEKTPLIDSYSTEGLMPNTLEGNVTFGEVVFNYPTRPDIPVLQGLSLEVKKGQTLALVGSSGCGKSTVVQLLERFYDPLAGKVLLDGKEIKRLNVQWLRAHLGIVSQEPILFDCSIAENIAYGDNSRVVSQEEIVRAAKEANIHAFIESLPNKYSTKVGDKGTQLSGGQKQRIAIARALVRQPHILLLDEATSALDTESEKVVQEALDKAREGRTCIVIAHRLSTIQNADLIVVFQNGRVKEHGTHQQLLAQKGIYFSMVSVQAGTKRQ

CYP3A = test: Substrate of / metabolism by CYP3A; format: in vitro ADME
P-gp = P-gp (Homo sapiens, UniProt P08183); test: Substrate of P-gp; format: in vitro ADME
Sequence of P-gp (P08183 whole entry): as above

OATP1B1 = target: T1, OATP1B1 (Homo sapiens, UniProt Q9Y6L6); test: Substrate of OATP1B1; format: in vitro ADME
T1 sequence (Q9Y6L6 1-691): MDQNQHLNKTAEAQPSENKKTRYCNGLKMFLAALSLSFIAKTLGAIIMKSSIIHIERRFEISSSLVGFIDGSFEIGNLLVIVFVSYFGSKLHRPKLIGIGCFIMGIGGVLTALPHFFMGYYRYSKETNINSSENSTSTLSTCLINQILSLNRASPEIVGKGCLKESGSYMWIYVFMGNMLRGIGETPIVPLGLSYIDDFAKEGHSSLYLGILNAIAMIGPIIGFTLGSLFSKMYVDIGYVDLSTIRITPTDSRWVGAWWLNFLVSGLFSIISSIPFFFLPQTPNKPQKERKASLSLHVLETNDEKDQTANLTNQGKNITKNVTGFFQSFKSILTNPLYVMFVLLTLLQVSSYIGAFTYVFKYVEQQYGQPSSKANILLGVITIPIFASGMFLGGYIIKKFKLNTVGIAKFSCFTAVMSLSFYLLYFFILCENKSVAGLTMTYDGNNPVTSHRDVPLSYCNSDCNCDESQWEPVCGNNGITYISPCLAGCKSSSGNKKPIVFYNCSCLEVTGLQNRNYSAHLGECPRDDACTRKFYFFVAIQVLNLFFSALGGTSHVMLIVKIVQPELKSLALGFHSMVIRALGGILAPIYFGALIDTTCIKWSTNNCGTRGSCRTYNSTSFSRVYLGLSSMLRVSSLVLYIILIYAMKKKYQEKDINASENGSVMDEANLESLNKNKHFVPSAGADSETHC

[1] = Drug interaction studies: pharmacokinetics of elagolix in the presence of co-administered drugs; format: in vivo, human; conditions: for Ratio (90% CI) AUC of elagolix, co-administration vs elagolix alone / Ratio (90% CI) Cmax of elagolix, co-administration vs elagolix alone: elagolix 150 mg single dose
Experimental: Drug interaction studies were performed with elagolix and other drugs likely to be co-administered and with drugs commonly used as probes for pharmacokinetic interactions.

pregnant rats = test: Embryofetal development study in the rat; format: in vivo
Experimental: (§2) Embryofetal development studies were conducted in the rat and rabbit. Elagolix was administered by oral gavage to pregnant rats (25 animals/dose) at doses of 0, 300, 600 and 1200 mg/kg/day and to rabbits (20 animals/dose) at doses of 0, 100, 150, and 200 mg/kg/day, during the period of organogenesis (gestation day 6-17 in the rat and gestation day 7-20 in the rabbit).

rabbits = test: Embryofetal development study in the rabbit; format: in vivo
Experimental: as §2

[2] = Pre- and postnatal development study in rats; format: in vivo, rat; conditions: female, rat, plasma, oral, rats, read-out: maternal plasma concentration
Experimental: (§1) In a pre- and postnatal development study in rats, elagolix was given in the diet to achieve doses of 0, 100 and 300 mg/kg/day (25 per dose group) from gestation day 6 to lactation day 20. […] Pup survival was decreased from birth to postnatal day 4. […] Smaller body size and effect on startle response were associated with lower pup weights at 300 mg/kg/day. Post-weaning growth, development and behavioral endpoints were unaffected.

rats = test: Pre- and postnatal development study in rats; format: in vivo, rat; conditions: for maternal plasma concentration relative to maximal elagolix concentration (Cmax) in humans at the MRHD: rats
Experimental: as §1

[3] = target: T2, rat gonadotropin-releasing hormone (GnRH) receptor (Rattus norvegicus, UniProt P30969); test: Binding to rat versus human GnRH receptor; conditions: rat vs human GnRH receptor
T2 sequence (P30969 1-327): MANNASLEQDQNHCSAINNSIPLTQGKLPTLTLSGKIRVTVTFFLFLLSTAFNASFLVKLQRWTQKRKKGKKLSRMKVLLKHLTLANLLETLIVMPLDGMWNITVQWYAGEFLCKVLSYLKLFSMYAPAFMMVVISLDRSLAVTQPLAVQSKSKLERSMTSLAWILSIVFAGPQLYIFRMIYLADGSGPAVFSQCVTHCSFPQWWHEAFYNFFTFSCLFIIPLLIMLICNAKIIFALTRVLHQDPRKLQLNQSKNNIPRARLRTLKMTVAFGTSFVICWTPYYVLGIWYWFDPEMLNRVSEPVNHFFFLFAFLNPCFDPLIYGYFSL

[4] = Pharmacogenomics: elagolix plasma concentrations by SLCO1B1 521T>C genotype; format: in vivo, human; conditions: SLCO1B1 521 C/C genotype
Source text: Hepatic uptake of elagolix involves the OATP1B1 transporter protein. Higher plasma concentrations of elagolix have been observed in patients who have two reduced function alleles of the gene that encodes OATP1B1 (SLCO1B1 521T>C) (these patients are likely to have reduced hepatic uptake of elagolix; and thus, higher plasma elagolix concentrations). The frequency of this SLCO1B1 521 C/C genotype is generally less than […] in most racial/ethnic groups. Women with this genotype are expected to have approximately 2-fold higher elagolix mean concentrations compared to women with normal transporter function (i.e., SLCO1B1 521T/T genotype). Adverse effects of elagolix have not been fully evaluated in subjects who have two reduced function alleles of the gene that encodes OATP1B1 (SLCO1B1 521T>C). The above listed examples should not be deemed to limit the scope of the invention as claimed.

[5] = Ketoconazole 400 mg once daily, N 11
[6] = Rifampin 600 mg single dose, N 12
[7] = rabbits, highest, maternally toxic dose
[8] = lactation day 21, 100 mg/kg/day
[9] = lactation day 21, 300 mg/kg/day

COc1cccc(-c2c(C)n(Cc3c(F)cccc3C(F)(F)F)c(=O)n(C[C@H](NCCCC(=O)O)c3ccccc3)c2=O)c1F [elagolix, 4-((R)-2-[5-(2-fluoro-3-methoxy-phenyl)-3-(2-fluoro-6-trifluoromethyl-benzyl)-4-methyl-2,6-dioxo-3,6-dihydro-2H-pyrimidin-1-yl]-1-phenyl-ethylamino)-butyric acid]
CYP2B6 induction (CYP2B6): weak to moderate inducer
CYP3A4 / CYP3A induction (CYP3A4): weak to moderate inducer
CYP2C19 inhibition (CYP2C19): weak inhibitor
P-gp inhibition (P-glycoprotein (P-gp)): inhibitor
substrate of CYP3A (CYP3A): substrate
substrate of P-gp (P-gp): substrate
substrate of OATP1B1 (OATP1B1): substrate
Ratio (90% CI) AUC of elagolix, co-administration vs elagolix alone [1, 5]: 2.20
Ratio (90% CI) Cmax of elagolix, co-administration vs elagolix alone [1, 5]: 1.77
Ratio (90% CI) AUC of elagolix, co-administration vs elagolix alone ([1]; Rifampin 600 mg once daily): 1.65
Ratio (90% CI) Cmax of elagolix, co-administration vs elagolix alone ([1]; Rifampin 600 mg once daily): 2.00
Ratio (90% CI) AUC of elagolix, co-administration vs elagolix alone [1, 6]: 5.58
Ratio (90% CI) Cmax of elagolix, co-administration vs elagolix alone [1, 6]: 4.37
plasma concentrations of elagolix with concomitant rifampin ([1]; concomitant use of rifampin): increased
changes in elagolix exposures ([1]; elagolix 300 mg twice daily with rosuvastatin (20 mg once daily), sertraline (25 mg once daily) or fluconazole (200 mg single dose)): No clinically significant changes
dose with (increased) postimplantation loss, multiple of MRHD (pregnant rats; pregnant rats, oral, organogenesis, mid dose group, based on AUC): 12 times the MRHD
fetal malformations (pregnant rats; rat, any dose level tested): No fetal malformations
maternal deaths (pregnant rats; rats, 300, 600 and 1200 mg/kg/day): six deaths
fetal malformations (rabbits; rabbit, any dose level tested): No fetal malformations
dose with spontaneous abortion and total litter loss, multiple of MRHD (rabbits; rabbits, oral, organogenesis, highest, maternally toxic dose, based on AUC): 7 times the MRHD
total litter loss (rabbits; rabbits, 150 mg/kg/day, non-maternally toxic): single total litter loss
spontaneous abortions (rabbits; [7]): three spontaneous abortions
total litter loss (rabbits; [7]): single total litter loss
dose with total litter loss, multiple of MRHD (rabbits; rabbits, lower non-maternally toxic dose of 150 mg/kg/day): 4 times the MRHD
concentration at 21 lactation day [2, 8]: 47 ng/mL
concentration at 21 lactation day [2, 9]: 125 ng/mL
pup birth weights (rats; 300 mg/kg/day): lower birth weights
dams failing to deliver (rats; highest dose (300 mg/kg/day)): one failed to deliver
dams with total litter loss (rats; highest dose (300 mg/kg/day)): two dams
pup survival (rats; highest dose, birth to postnatal day 4): decreased
post-weaning growth, development and behavioral endpoints (rats; rat, in vivo): unaffected
maternal plasma concentration relative to maximal elagolix concentration (Cmax) in humans at the MRHD (rats; [8]): 0.04 fold
maternal plasma concentration relative to maximal elagolix concentration (Cmax) in humans at the MRHD (rats; [9]): 0.1 fold
binding to rat GnRH receptor relative to human GnRH receptor [3]: ~1000 fold less
plasma concentrations in patients with two reduced function alleles of SLCO1B1 521T>C [4]: Higher
elagolix mean concentrations vs women with normal transporter function (SLCO1B1 521T/T) ([4]; expected): approximately 2 fold higher
